Source: ChEMBL document CHEMBL5390201, “The Natural Alkaloid (-)-N-Hydroxyapiosporamide Suppresses Colorectal Tumor Progression as an NF-κB Pathway Inhibitor by Targeting the TAK1-TRAF6 Complex” (J Nat Prod, 2023)

Tests used:
HCT-116 = test: Cytotoxicity against human HCT-116 cells assessed as decrease in cell viability incubated for 48 hrs by SRB assay; type: functional, cell-based; settings: HCT-116, 48 h
[1] = Half life in ip dosed mouse; type: ADME, organism-based; settings: in vivo
RKO = test: Cytotoxicity against human RKO cells assessed as decrease in cell viability incubated for 48 hrs by SRB assay; type: functional, cell-based
HCT-15 = test: Cytotoxicity against human HCT-15 cells assessed as decrease in cell viability incubated for 48 hrs by SRB assay; type: functional, cell-based; settings: HCT-15, 48 h
SW480 = test: Cytotoxicity against human SW480 cells assessed as decrease in cell viability incubated for 48 hrs by SRB assay; type: functional, cell-based; settings: SW480, 48 h
SW-620 = test: Cytotoxicity against human SW620 cells assessed as decrease in cell viability incubated for 48 hrs by SRB assay; type: functional, cell-based; settings: SW-620, 48 h
HT-29 = test: Cytotoxicity against human HT-29 cells assessed as decrease in cell viability incubated for 48 hrs by SRB assay; type: functional, cell-based; settings: HT-29, 48 h

O=c1[nH]cc(F)c(=O)[nH]1 [FLUOROURACIL]
IC50 (HCT-116): 12 µM | half-life [1]: 1.36 h | IC50 (RKO): 12 µM | IC50 (HCT-15): 12 µM | IC50 (SW480): 12 µM | IC50 (SW-620): 12 µM | IC50 (HT-29): 12 µM
